Experimental data from the supplement of paper PMC10307832.

Columns and labels:
Assay in all cases: relative viability (nuclei count vs DMSO), 5 days (fraction); higher = more cells survive
[1] = compound: COC1=CC(c2cc3ccccc3[nH]2)=N/C1=C\c1[nH]c(C)cc1C [Obatoclax] + O=C(c1cc(Cc2n[nH]c(=O)c3ccccc23)ccc1F)N1CCN(C(=O)C2CC2)CC1 [Olaparib] (partner 8 µM)
How it was run: (§1)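 After 5 days of treatment, lung cancer cells in 1536-well plates were fixed and stained in a single step (final 0.05% Triton X-100, 1% formaldehyde, 1 ug/ml Hoechst) and their nuclei counted on 4× images. Treatment had been applied by pin tool the day after seeding as one drug alone or as a fixed anchor-drug dose with five library-drug doses (not always all listed) in √10 steps. Relative viability is the nuclei count of treated wells divided by that of vehicle wells, and values are medians of duplicate plates.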

[2] = compound: CC1=CC(=NN1)NC2=CC(=NC(=N2)/C=C/C3=CC=CC=C3)N4CCN(CC4)C + CC(=O)c1c(C)c2cnc(Nc3ccc(N4CCNCC4)cn3)nc2n(C2CCCC2)c1=O [Palbociclib] (partner 0.5 µM)
How it was run: as §1

[3] = compound: CC1=CC(=NN1)NC2=CC(=NC(=N2)/C=C/C3=CC=CC=C3)N4CCN(CC4)C + CS(=O)(=O)CCNCc1ccc(-c2ccc3ncnc(Nc4ccc(OCc5cccc(F)c5)c(Cl)c4)c3c2)o1 [Lapatinib] (partner 2 µM)
How it was run: as §1

[4] = compound: COC1=CC(c2cc3ccccc3[nH]2)=N/C1=C\c1[nH]c(C)cc1C [Obatoclax] + N=C(N)NC(=N)NCCc1ccccc1 [Phenformin] (partner 250 µM)
How it was run: as §1

Cell Line | relative viability ([1]; first compound 0.01 µM) | relative viability ([1]; first compound 0.03162 µM) | relative viability ([1]; first compound 0.3162 µM) | relative viability ([1]; first compound 1 µM) | relative viability ([2]; first compound 0.08 µM) | relative viability ([2]; first compound 0.253 µM) | relative viability ([2]; first compound 0.8 µM) | relative viability ([2]; first compound 2.53 µM) | relative viability ([2]; first compound 8 µM) | relative viability ([3]; first compound 0.08 µM) | relative viability ([3]; first compound 0.253 µM) | relative viability ([3]; first compound 0.8 µM) | relative viability ([3]; first compound 2.53 µM) | relative viability ([3]; first compound 8 µM) | relative viability ([4]; first compound 0.01 µM) | relative viability ([4]; first compound 0.03162 µM) | relative viability ([4]; first compound 0.1 µM) | relative viability ([4]; first compound 0.3162 µM) | relative viability ([4]; first compound 1 µM) | relative viability ([1]; first compound 0.1 µM)
LU99A | 0.292 | 0.243 | 0.313 | 0.321 | 0.413 | 0.461 | 0.393 | 0.299 | 0.146 | 0.958 | 0.943 | 0.728 | 0.252 | 0.125 | 0.885 | 0.854 | 0.74 | 0.77 | 0.417 | 
LXF-289 | 1.05 | 1.1 | 1.09 | 1 | 0.632 | 0.63 | 0.602 | 0.568 | 0.304 | 0.918 | 0.969 | 0.839 | 0.487 | 0.574 | 0.484 | 0.53 | 0.496 | 0.505 | 0.458 | 0.972
NCI-H23 | 0.288 | 0.369 | 0.28 | 0.206 | 0.483 | 0.505 | 0.409 | 0.158 | 0.123 | 0.981 | 1.37 | 1 | 0.46 | 0.139 | 0.745 | 0.746 | 0.821 | 0.718 | 0.597 | 0.398
NCI-H322M | 0.823 | 0.739 | 0.758 | 0.724 | 0.444 | 0.572 | 0.458 | 0.336 | 0.287 | 0.56 | 0.67 | 0.507 | 0.321 | 0.208 | 0.855 | 0.603 |  | 0.824 | 0.62 | 0.961
NCI-H358 | 0.543 | 0.61 | 0.384 | 0.141 | 0.12 | 0.144 | 0.133 | 0.0673 | 0.072 | 0.511 | 0.471 | 0.335 | 0.147 | 0.134 | 0.309 | 0.365 | 0.432 | 0.339 | 0.217 | 0.582
NCI-H460 | 0.422 | 0.408 | 0.339 | 0.14 | 0.159 | 0.145 | 0.149 | 0.0195 | 0.0182 | 0.909 | 0.952 | 0.943 | 0.0124 | 0.0122 | 0.448 | 0.53 | 0.441 | 0.25 | 0.112 | 
NCI-H520 | 0.301 | 0.323 | 0.289 | 0.208 | 0.209 | 0.214 | 0.184 | 0.142 | 0.113 | 0.831 | 0.887 | 0.573 | 0.182 | 0.0952 | 0.677 | 0.562 | 0.589 | 0.532 | 0.455 | 0.372
NCI-H647 | 0.633 | 0.539 | 0.174 | 0.067 | 0.429 | 0.365 | 0.332 | 0.115 | 0.0496 | 1.02 | 1.29 | 1.08 | 0.0749 | 0.0425 | 0.566 | 0.576 | 0.518 | 0.252 | 0.146 | 0.547
